According to patent US6645903B2, “Fluoroborane salts comprising a reactive cation and uses thereof” (Colorado State University Research Foundation, priority 2000, dated 2003):

Assays:
[1] = Description: Hexanes and an excess of trimethylaluminum were removed under vacuum.
A mixture of [CPh3][(CH3)3NB12F11] […] A mixture was stirred under a nitrogen atmosphere for 20 h.
The orange microcrystalline compound (CPh3)2B12F12 (0.195 g, 0.231 mmol) was treated with 2 ml of toluene solution of AlMe3 (0.161 g, 2.240 mmol). […] The mixture was stirred for additional 40 hours.

[2] = Stability in solution and on storage; format: physicochemical
Description: where R^1, R^2, Q, M^1, m, n, and q are those defined above. […] In addition, unlike many other aluminum metal catalysts, Compound of Formula IA has a relatively high solubility in aliphatic hydrocarbon solvents. For example, the compound AlMe2(1-Dd-CB11F11), where Dd is dodecyl, is soluble in hexanes and methylcyclohexane and stable for at least 10 days at 25° C.
A suspension of CPh3(1-Et-CB11F11) (0.412 g, 0.67 mmol) in pentane (40 ml) was treated with a solution of Si(i-Pr)3H (0.215 g, 1.36 mmol, 2 equiv.) in pentane (10 ml) for 20 hours at room temperature. The mixture was treated with more Si(i-Pr)3H (0.56 g, 3.54 mmol) for another 20 hours. (Note, that a large excess of Si(i-Pr)3H (˜7 equiv.) required for the reaction to go to completion. A slightly pink pentane solution was filtered from a small amount of red-brown oily solid (˜20 mg, which upon dissolving of in acetonitile was identified as a mixture of CPh3(1-Et-CB11F11) and [Si(i-Pr)3(CD3CN)][1-Et-CB11F11]. The volume of the pentane solution was reduced to ˜5 ml, which caused the formation of white solid. The solid was separated by filtration, washed three times with 1 ml of pentane and dried under nitrogen atmosphere inside the glove box. The yield of Si(i-Pr)3(1-Et-CB11F11) as an off-white crystalline solid was 0.198 g (56%). […]

[3] = Polymerization of ethylene in hexanes; conditions: hexanes solution, 24° C., 703 torr ethylene, 18 h
Description: A suspension of [CPh3][1-C12H25-CB11F11] (5.0 mg) in 0.5 ml of methylcyclohexane-d14 was treated with 0.5 ml of methylcyclohexane-d14 solution of Al(CH3)3 (2.2 mg) for 20 h. […] The filtrate was diluted with 7 ml of hexanes and transferred into a 50 ml Kontes tube. The solution was treated with 703 torr of ethylene for 18 h at 24° C. and small amount of white solid was formed. The mixture was treated with 3 ml of methanol for 20 minutes. A solid polyethylene was collected (3 mg) by filtration and characterized by DSC (Tm=126° C.).

[4] = Polymerization of ethylene with one equivalent of Cp2ZrMe2; conditions: with Cp2ZrMe2, hexanes, 660 torr ethylene, from ethylene pressure decrease
Description: A suspension of [CPh3][1-C12H25-CB11F11] (5.0 mg) in 0.5 ml of methylcyclohexane-d14 was treated with 0.5 ml of methylcyclohexane-d14 solution of Al(CH3)3 (2.2 mg) for 20 h. […] The filtrate was diluted with 7 ml of hexanes and transferred into a 50 ml Kontes tube. The solution was treated with 1 ml of hexanes solution of Cp2ZrMe2 (1.3 mg). The mixture was treated with 660 torr of ethylene. The ethylene pressure was decreased to 470 torr within 5 minutes due to the formation of polyethylene (white solid). More ethylene (812 torr) was added to the mixture and the ethylene pressure was decreased to 295 torr within the next 2 hours. The mixture was quenched with 5 ml of methanol and stirred for 20 minutes. A solid polyethylene was collected (210 mg) by filtration and characterized by DSC (Tm=129° C.). The catalytic activity during the first 5 minutes (good agitation) was calculated based on the ethylene pressure decrease and was at least 150 kg PE/mol Zr·h·atm.

[5] = Zirconocene catalyzed selective dimerization of 1-hexene; conditions: for turnovers number within the first five minutes: co-catalyst with Cp2ZrMe2, first five minutes
Description: A solution of Al(CH3)2(1-[…]-CB11F11) (6.1 mg, 10.8 μmol) in 0.28 ml of methylcyclohexane was treated with a solution of Cp2ZrMe2 (2.3 mg, 9.1 μmol) in 1-hexene (3.654 g). The resulted mixture was stirred under a nitrogen atmosphere and the samples were taken from the reaction mixture after 5 minutes and 55 minutes. According to ^1H NMR spectra of the reaction mixtures approximately 33% of 1-hexene were reacted within 5 minutes, and approximately 99% of 1-hexene were reacted within 55 minutes. The reaction was exothermic as indicated by the significant self-heating of the reaction mixture during the reaction. The reaction products were analyzed by ^1H, ^13C NMR and GC-MS. According to the analysis the reaction mixture contained 83% of 1-hexene dimerization products (more than 95% of 2-butyl-1-octene) and 17% of 1-hexene isomerization products (the distribution of hexene isomers was as follows: E-2 hexene-56%, Z-2 hexene-26%, E-3 hexene-15%, and Z-3 hexene-3%). The total turnovers number of the activated zirconocene catalyst was calculated to be 4780 (87 TON·min^−1). The turnovers number within the first five minutes of the reaction was approximately 315 TON·min^−1

[6] = Arene-olefin coupling of toluene-d8 with ethylene; conditions: toluene-d8, 656 torr ethylene, 14.5 hours, 24° C.
Description: Compounds of Formula IA are useful in a variety of organic reactions including in an arene-olefin coupling reaction. Thus, when the above reaction was repeated under one atmosphere of ethylene (CH2═CH2), a GC-MS analysis of the reaction mixture after 14.5 hr at 24° C. indicated the catalytic formation of all three positional isomers (i.e., the ortho (47%), meta (35%), and para (18%) isomers) of C6D4(CD3)(CH2CH2D) (the number of turnovers in this particular experiment was approximately 60-70. Without being bound any theory, the proposed catalytic scheme, which includes the catalytic activation of aromatic C—H bonds and the catalytic insertion of ethylene into an aluminum-aryl bond, is shown in FIG. 1 in a generic scheme using C6H6 as the substrate instead of C6D5CD3 for simplicity (the coordinated fluorocarborate anion (i.e., Q moiety) has also been omitted from the scheme for simplicity). It should be appreciated that the AlPh2^+1 species shown in FIG. 1 may in fact be a mixture of AlPh2^+1 and AlMePh^+1 species.
A compound Al(CH3)2(1-CH3-CB11F11) (2 mg) was dissolved in 1 ml of toluene-d8 and transferred into a sealable NMR tube. The solution was degassed under vacuum and treated with 656 torr of ethylene for 14.5 hours at 24° C. Proton NMR spectrum of the solution indicated the formation of ethyltoluene. […]

[7] = Alkylation of benzene with 1-hexene; conditions: benzene + 1-hexene, 25 hours
Description: A mixture of Al(CH3)2(1-CH3-CB11F11) (2.5 mg, 4.4 μmol), benzene (0.964 g, 12.4 mmol) and 1-hexene (0.224 g, 2.7 mmol) was stirred for 25 hours under a nitrogen atmosphere. […] A GC-MS analysis of the reaction mixture indicated the formation of monohexylbenzenes (29%), dihexylbenzenes (20%) and trihexylbenzenes (51%). The relative amounts of 2-phenylhexane and 3-phenylhexane were 70% and 30%, respectively. Total turnovers number of aluminum alkyl catalyst was calculated to be approximately 606 (24 TON/h).

[8] = cited from earlier work
[9] = cited from earlier work; remark: listed apart in the source
[10] = similar transformation, comparison value; cited from earlier work

What does the source list for (AlMe2)2B12F12?
solubility in acetonitrile-d3 [1]: dissolved; solubility in toluene [1]: not soluble

Which stable in solution ([2]; hexanes and methylcyclohexane, 25° C.) does the source give for Al(CH3)2(1-C12H25-CB11F11) here?
Its stable in solution is “at least 10 days”.

What about the “activity for polymerization of ethylene” value [3] of the same substance?
The value was “approximately 33 g PE/mol Al·h·at”.

And the “catalytic activity during the first 5 minutes” value [4]?
Its value is “at least 150 kg PE/mol Zr·h·atm”.

What about the “total turnovers number of the activated zirconocene catalyst” value ([5]; co-catalyst with Cp2ZrMe2, 1-hexene, 55 minutes) of the same substance?
Its value is 4780.

What about the “turnover rate over whole reaction” value ([5]; co-catalyst with Cp2ZrMe2, 55 minutes) of the same substance?
Its value is 87 TON·min^−1.

What about the “turnovers number within the first five minutes” value [5] of the same substance?
The value was 315 TON·min^−1.

And the “turnovers number within the first five minutes” value ([5]; listed as Al(CH3)2(1-C2H25-CB11F11))?
Its value is “approximately 315 TON·min^−1”.

And the 1-hexene reacted ([5]; within 5 minutes)?
Its 1-hexene reacted is “approximately 33%”.

What about the 1-hexene reacted ([5]; within 55 minutes) of the same substance?
The 1-hexene reacted was “approximately 99%”.

Which results are given for Al(CH3)2(1-CH3-CB11F11)?
number of turnovers (TON), formation of ethyltoluene [6]: approximately 66; number of turnovers (TON), formation of ethyltoluene ([6]; listed as AlMe2(1-Me-CB11F11)): 60-70; total turnovers number of aluminum alkyl catalyst [7]: approximately 606; turnover rate [7]: 24 TON/h

Which “solubility in acetonitrile-d3” value [1] does the source give for Al(CH3)2((CH3)3NB12F11) here?
The value was “completely dissolved”.

What about the “solubility in toluene” value [1] of the same substance?
The value was “not soluble”.

For Si(i-Pr)3(1-Et-CB11F11), which “sensitivity to traces of water” value ([2]; solid, storage under nitrogen) is on record?
Its value is “extremely sensitive”.

What does the source list for methylalurnoxane [MAO]?
solubility in aliphatic hydrocarbon solvents [8]: limited solubilities; stability when stored in solution [9]: not stable; activity, conventional co-catalyst [10]: 30 TON ·min^−1; total turnovers number of the catalyst, conventional co-catalyst [10]: 500
